# Measurements from patent publication US9657081B2, “Inhibiting peptides derived from triggering receptor expressed on myeloid cells-1 (TREM-1) TREM-like transcript 1 (TLT-1) for treatment of cardiovascular diseases” (INSERM (Institut National de la Sante et de la Recherche …, priority 2013, dated 2017).
# Test system: TREM-1
# Test: Rat model of myocardial permanent ischemia (myocardial infarction), physiologic parameters and micro-TEP imaging
# Type: in vivo
# Description: Adult male Wistar rats (360-380 g) were used. All rats were anaesthetized with ketamine (100 mg/kg, intramuscularly) and mechanically ventilated. After a left thoracotomy, the left coronary artery was identified and ligated with a 6-0 prolene surgical suture. LAD occlusion was confirmed by a change in myocardial color from red to white in the ischemia area (Left ventricle). The chest was closed and the skin was sutured with 6-0 silk. The animals returned to their cage where they were supervised until their complete recovery. The postoperative mortality rate of all rats was 20%.
# After surgical LAD occlusion, importance of ischemic area was evaluated by micro-TEP imaging. Animals were then randomized to receive peptide (5 mg/kg) every 24 h for 5 days or placebo (vehicle).
# A further evaluation was performed at 6 weeks by micro-TEP imaging and conductance catheter (Millar) in order to study the treatment effect on myocardial remodeling and myocardial function.
# In all animals, approximately 70 MBq of ^18F-FDG (in a 0.3-0.5 ml volume) was injected intravenously and under a short anaesthesia (1.5-2.5% of isoflurane inhalation) 60 min prior to initiating PET recording. Recording was acquired in list mode under continuous anaesthesia by isoflurane, using a dedicated small animal PET system (Inveon, Siemens, Knoxville, Tenn., USA). The animals were positioned in the prone position and placed on a heating pad to maintain a body temperature within the normal range. The animals were connected to a standard ECG monitor by three electrodes placed on the inner surfaces of limb extremities. Recording times were 20 min for 18F emission and 6 min for 57Co transmission. The coincidence timing window was set to 3.4 ns and the energy window between 350 and 650 keV. Images were reconstructed in 16 cardiac intervals, providing a temporal resolution of 11-15 ms for common heart rate values. Under these conditions, the axial spatial resolution was less than 1.5 mm. In addition, on LV rat phantoms obtained by a stereolithography process, a precise determination of the actual cavity volumes was provided by FDG PET images above the level of 100 μl corresponding to the lower limit for the LV endsystolic volume in adult.
# We finally investigated whether the modulation of the inflammatory response conferred by TREM-1- and TLT-1-derived peptides was able to translate into cardiac function improvement after a severe MI. We performed a permanent coronary artery ligation in rats before randomisation and imaging as described above.
sequence,measurement,setting,value
LQEEDAGEYGCM (listed as Homo sapiens) [TLT1-LR12],Body weight,Baseline,313 ± 51 g
same,EDV,Baseline,417 ± 92 µL
same,EF,Baseline,48 ± 9%
same,ESV,Baseline,215 ± 62 µL
same,Heart rate,Baseline,400 ± 26 bpm
same,MI Areas,Baseline,22 ± 11 % of LV
same,MT Areas,Baseline,54 ± 30 mm^2
same,Systolic blood pressure,Baseline,136 ± 17 mmHg
same,Body weight,Six weeks,426 ± 49 g
same,"Body weight, difference with baseline",Six weeks,113 ± 51 g
same,EDV,Six weeks,615 ± 161 µL
same,"EDV, difference with baseline",Six weeks,198 ± 95 µL
same,EF,Six weeks,50 ± 8%
same,"EF, difference with baseline",Six weeks,2 ± 7%
same,ESV,Six weeks,313 ± 128 µL
same,"ESV, difference with baseline",Six weeks,99 ± 80 µL
same,Heart rate,Six weeks,393 ± 23 bpm
same,"Heart rate, difference with baseline",Six weeks,−8 ± 22 bpm
same,"MI Areas (% of LV), difference with baseline",Six weeks,−6.0 ± 8.1 % of LV
same,"MI Areas (mm^2), difference with baseline",Six weeks,−5 ± 23 mm^2
same,Systolic blood pressure,Six weeks,136 ± 17 mmHg
same,"Systolic blood pressure, difference with baseline",Six weeks,−12 ± 26 mmHg
